Measurements from patent US10449261B2, “Compositions targeting radiation-induced molecules and methods of use thereof” (Washington University, priority 2014, dated 2019).
Entries after “also recorded” stand apart in the source; their conditions may differ. One block for each molecule: values may come before it. Numbered stars: 1 amine (or outer) side, 2 acyl side, 3 side chain; on linkers, the order of the positions; unused ones are H or OH. Primed or numbered codes have the meaning given here. Ends that are not written are not given here. * marks the point of attachment. K(CHX-A″-DTPA) = O=C(O)CN(CC(=O)O)[C@H](Cc1ccc(NC(=S)NCCCC[C@H](N[*:1])C(=O)[*:2])cc1)CN(CC(=O)O)[C@H]1CCCC[C@@H]1N(CC(=O)O)CC(=O)O; FITC = O=C1OC2(c3ccc(O)cc3Oc3cc(O)ccc32)c2ccc(NC(=S)*)cc21; DTPA = O=C(O)CN(CCN(CC(=O)O)CC(=O)O)CCN(CC(=O)O)CC(=O)*; PEG = not defined here; AEEA = NCCOCCOCC(=O)O

How the values were obtained:
[1] = system: glioblastoma (D54) tumors; experiment: SPECT/CT imaging of tumor models; format: in vivo, mice; details: right hind limb 3 doses of 3 Gy
Source text: (§1) In addition we also screened lung cancer (A549), pancreatic cancer (BxPC3) and glioblastoma (D54) tumor models for binding of radiolabeled GIRLRG (SEQ ID NO:1) peptide.

[2] = system: lung cancer (A549) tumors; experiment: SPECT/CT imaging of tumor models; format: in vivo, mice; details: right hind limb 3 doses of 3 Gy
Source text: as §1

[3] = system: pancreatic cancer (BxPC3) tumors; experiment: SPECT/CT imaging of tumor models; format: in vivo, mice; details: right hind limb 3 doses of 3 Gy
Source text: as §1

irradiated A549 tumors = experiment: SPECT imaging and gamma emission of organs and tumors (Example 1); format: in vivo, mice; details: mice with A549 tumors, 3 Gy
Protocol: (§2) SPECT images of the spatial and temporal pharmacokinetics of ^111In-labeled PEG-GIRLRG and ^111In-labeled control peptide within irradiated mouse A549 tumors is shown in FIG. 1. At 7 days after administration, gamma emission from each of the organs and tumors of mice injected with PEG-GIRLRG (SEQ ID NO:1) and PEG-control peptide was measured (FIG. 2).

[4] = system: irradiated mouse A549 tumors; experiment: as above; format: in vivo, mice; details: A549 tumors, 7 days after administration
Protocol: as §2

[5] = Size and aggregation of pegylated peptides (dynamic light scattering); format: physicochemical
[6] = system: esophageal (OE33) heterotopic tumors; experiment: NanoSPECT/CT imaging and post-SPECT biodistribution in tumor bearing nude mice; details: for tumor uptake, post-SPECT biodistribution, compared to control peptide: OE33 tumor bearing mice, 96 h after injection; for tumor binding by SPECT imaging: OE33 tumors, 48 h and 72 h post injection, 500 μCi via tail vein; for effect of tumor irradiation on tumor binding: OE33, right hind limb 3 fractions of 3 Gy vs sham left
Protocol: (§7) Nude mice bearing the HT3 and OE33 tumors in both the hind limbs were used (˜1 cm^3). Since radiotherapy is used in treating cervical and esophageal cancers, we also irradiated the tumors. The tumor on the right hind limb was irradiated with 3 fractions of 3 Gy over a course of 24 h, the tumor on the left hind limb was used as sham control. The mice were then injected with 500 μCi (10 μCi/μg) of radiolabeled peptide via tail vein. SPECT/CT imaging was performed at 48 and 72 h post injection.
(§8) Tumor models were established in 6 to 8-week-old female athymic nude mice obtained from Harlan laboratories (USA). Heterotopic tumors were induced by sub-cutaneously injecting tumor cells (1-3×10^6) into hind limbs of athymic nude mice. The tumors were grown until a size of 1 cm^3 before using the mice for SPECT imaging.
(§9) Whole body SPECT images were obtained at 48 and 72 h post injection (p.i.) using a NanoSPECT/CT imager (Bioscan Inc., Washington, D.C., USA) fitted with 2 mm pinhole collimators in helical scanning mode. Mice were placed in prone position and scanned under anesthesia (0.5 L/min 1.5% isoflurane in air). A 45-keV helical CT scan was performed first and then the SPECT acquisition was performed at 24 projections and 60 s per projection, for a total scan time of about 45 min. Tomographic data were reconstructed iteratively with the manufacturer-supplied InVivoScope and HiSPECT software for CT and SPECT, respectively.
(§10) After scanning, 96 h p.i., the bio-distribution of the labelled peptide in various organs was determined. The animals were sacrificed and organs of interest including blood were dissected/collected, weighed, and counted in a gamma counter along with a standard of the injected activity to allow calculation of the injected dose per organ (% ID/organ).

A549 (lung cancer) = experiment: Binding of FITC-conjugated GIRLRG to cancer cells (fluorescent microscope); format: cell-based, human; details: 10 μg/ml, 2 h, 37° C.
Protocol: (§3) Four cancer cell lines D54 (glioma), HT3 (cervical), OE33 (eosophageal) and A549 (lung cancer) were used to evaluate binding of GIRLRG (SEQ ID NO:1) peptide. Cancer cells were incubated with FITC-conjugated GIRLRG (SEQ ID NO:1) peptide and fluorescent images were acquired using a fluorescent microscope.
(§4) Cell Lines: Human lung adenocarcinoma A549 and Human glioblastoma D54 cells were cultured in DMEM/F12, human esophageal carcinoma OE33 cells in RPMI and HT3 cells in IMDM media supplemented with 10% fetal bovine serum, penicillin and streptomycin. They were maintained at 37° C. in a 5% CO2 incubator.
(§5) Immunofluorescence: Cancer cells (A549, HT3, D54 and OE33) were grown on chamber slides (Millipore, USA) and incubated with 10 μg/ml FITC-GIRLRG (SEQ ID NO:1) peptide for 2 h at 37° C. in a CO2 incubator. The cells were then washed with PBS to remove unbound peptide and fixed with 4% paraformaldehyde at room temperature. The nuclei were stained with DAPI and fluorescent images were captured using a Carl Zeiss microscope (Tokyo, Japan).

D54 (glioma) = experiment: as above; format: cell-based, human; details: 10 μg/ml, 2 h, 37° C.
Protocol: as §3, §4, §5

OE33 (eosophageal) = experiment: as above; format: cell-based, human; details: 10 μg/ml, 2 h, 37° C.
Protocol: as §3, §4, §5

HT3 (cervical) = experiment: as above; format: cell-based; details: 10 μg/ml, 2 h, 37° C.
Protocol: as §3, §4, §5

[7] = system: cervical (HT3) heterotopic tumors; details: for effect of tumor irradiation on tumor binding: HT3, right hind limb 3 fractions of 3 Gy vs sham left
Protocol: as §7, §8, §9, §10

brain tumors = experiment: SPECT imaging of 111In-labeled PEG-GIRLRG (Example 1); format: in vivo, mouse; details: 72 hours following administration, 3 Gy vs 0Gy
Protocol: (§6) The right hind limb tumor was treated with 3 Gy and left hind limb tumor is an untreated (0Gy) internal control in the same mouse.

cervix tumors = experiment: as above; format: in vivo, mouse; details: 72 hours following administration, 3 Gy vs 0Gy
Protocol: as §6

esophageal tumors = experiment: as above; format: in vivo, mouse; details: 72 hours following administration, 3 Gy vs 0Gy
Protocol: as §6

cancer = experiment: Optimisation of the peptide construct: circulation and cancer binding; details: in vivo
Source text: The GIRLRG (SEQ ID NO:1) peptide conjugated to a poly-lysine linker for DOTA and DTPA conjugation was first studied. […] The duration of tumor binding was improved by PEGylation, with longer circulation times and prolonged imaging in cancer. […] Both PEG20 and PEG40 are effective at enhancing prolonged binding in cancer. […]

[8] = molecular target: T1, recombinant eukaryotic GRP78 protein (Prospec, USA) (UniProt P11021 19-654, limits assumed); experiment: SPR (BIAcore 2000), GRP78 amine-coupled on a CM4 chip, peptide as analyte at 0.313-10 mM, 25 C, HBS-EP
T1 construct: Immobilised by amine coupling on a CM4 chip; also called Glucose-regulated protein 78 kDa; Glucose Regulatory Protein-78
T1 sequence (P11021 19-654 limits assumed): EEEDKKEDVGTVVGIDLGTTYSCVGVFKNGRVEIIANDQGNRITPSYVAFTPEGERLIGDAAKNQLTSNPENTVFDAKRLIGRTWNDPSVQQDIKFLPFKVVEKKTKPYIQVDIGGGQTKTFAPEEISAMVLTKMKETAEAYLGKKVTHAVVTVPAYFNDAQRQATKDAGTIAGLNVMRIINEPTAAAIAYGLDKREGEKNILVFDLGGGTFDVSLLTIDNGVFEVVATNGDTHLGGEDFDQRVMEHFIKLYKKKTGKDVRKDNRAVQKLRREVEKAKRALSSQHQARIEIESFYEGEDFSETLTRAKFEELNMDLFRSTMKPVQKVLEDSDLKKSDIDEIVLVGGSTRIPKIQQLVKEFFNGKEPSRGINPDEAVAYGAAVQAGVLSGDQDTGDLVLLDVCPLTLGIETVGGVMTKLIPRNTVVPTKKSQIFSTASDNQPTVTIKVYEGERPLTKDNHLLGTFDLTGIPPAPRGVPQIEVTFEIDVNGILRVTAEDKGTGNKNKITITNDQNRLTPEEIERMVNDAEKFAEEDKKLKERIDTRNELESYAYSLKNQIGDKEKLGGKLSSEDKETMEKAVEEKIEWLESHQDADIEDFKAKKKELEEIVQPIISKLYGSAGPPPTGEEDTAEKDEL
Protocol: To determine the binding affinity of GIRLRG (SEQ ID NO:1) peptide to GRP78 protein, we used surface plasmon resonance technology. GRP78 protein was immobilized on the surface of CM4 sensor chip and approximately 7000 resonance Units (RUs) of GRP78 protein were immobilized (FIG. 6A). The GIRLRG (SEQ ID NO:1) peptide was dissolved in HBS-EP buffer at various concentrations (10, 5, 2.5, 1.25 and 0.313 mM) and passed over the immobilized GRP78 for 2 min (FIG. 6B). The rate constant K_D was obtained by fitting the sensogram data after reference subtraction (data from blank channel) using the BIA evaluation 3.0 software.
Surface Plasmon Resonance (SPR): Affinity of GIRLRG (SEQ ID NO:1) to GRP78 protein was measured by the biosensor-based SPR technique using an automatic apparatus BIAcore 2000 (GE healthcare, Sweden) as described earlier. The recombinant eukaryotic GRP78 protein (Prospec, USA) as ligand that was immobilized by amine coupling on the CM4 sensor surface and GIRLRG (SEQ ID NO:1) peptide was used as the analyte. Experiments were performed at 25° C. in HBS-EP buffer (GE healthcare). GRP78 protein was immobolized using surface preparation wizard for amine coupling. […] The affinity of the interaction was determined from the level of binding at equilibrium as a function of the sample concentrations by BIA evaluation software 3.0.

Molecule: mPEG40K-carbonyl-Lys(CHX-A″-DTPA)-AEEAc-Lys(CHX-A″-DTPA)-AEEAc-Trp-Lys(CHX-A″-DTPA)-AEEAc-GIRLRG ({mPEG40K‑carbonyl-K(CHX-A″-DTPA)-AEEA-K(CHX-A″-DTPA)-AEEA-Trp-K(CHX-A″-DTPA)-AEEA}-GIRLRG) [PEG-GIRLRG]
tumor binding by SPECT/CT imaging [1]: specific binding; also recorded: Enhanced tumor binding
tumor binding by SPECT/CT imaging [2]: specific binding; also recorded: Enhanced tumor binding
tumor binding by SPECT/CT imaging [3]: specific binding; also recorded: Enhanced tumor binding
binding to irradiated normal tissue (irradiated A549 tumors): did not bind to irradiated normal tissue
tumor binding (gamma emission from organs and tumors) [4]: selectively bound to tumors
size [5]: 8 nm
aggregation ([5]; after heating / radiolabeling conditions): did not aggregate even after heating
tumor uptake, post-SPECT biodistribution, compared to control peptide [6]: Significantly higher uptake
tumor binding by SPECT imaging [6]: specifically bound; also recorded: Enhanced tumor binding

Molecule: FITC-GIRLRG: FITC-conjugated GIRLRG peptide ({FITC}-GIRLRG)
binding to cancer cells (A549 (lung cancer)): specifically bound
binding to cancer cells (A549 (lung cancer); listed as FITC labeled GIRLRG): showed binding
binding to cancer cells (D54 (glioma)): specifically bound
binding to cancer cells (D54 (glioma); listed as FITC labeled GIRLRG): showed binding
binding to cancer cells (OE33 (eosophageal)): specifically bound
binding to cancer cells (OE33 (eosophageal); listed as FITC labeled GIRLRG): showed binding
binding to cancer cells (HT3 (cervical)): specifically bound
binding to cancer cells (HT3 (cervical); listed as FITC labeled GIRLRG): showed binding

effect of tumor irradiation on tumor binding [7]: did not interfere with specific binding
effect of tumor irradiation on tumor binding [6]: did not interfere with specific binding
Molecule: GIRLRG [GIRLRG]

Molecule: ^111In-labeled PEG-DTPA-GIRLRG: PEG-GIRLRG radiolabeled with ^111Indium by use of DTPA as the chelator ({PEG-DTPA}-GIRLRG; reading uncertain; also: radiolabeled with 111In chelated by DTPA)
tumor binding by SPECT/CT imaging [1]: enhanced binding
tumor binding by SPECT/CT imaging [2]: enhanced binding
tumor binding by SPECT/CT imaging [3]: enhanced binding
cancer selective binding (brain tumors): cancer selective binding
cancer selective binding (cervix tumors): cancer selective binding
cancer selective binding (esophageal tumors): cancer selective binding
cancer binding (cancer): binds within irradiated cancers
effect of tumor irradiation on tumor binding [7]: did not affect tumor binding
tumor binding by SPECT imaging ([7]; HT3 tumors, 48 h and 72 h post injection, 500 μCi via tail vein): bound
effect of tumor irradiation on tumor binding [6]: did not affect tumor binding
tumor uptake, post-SPECT biodistribution, compared to control peptide [6]: Significantly higher (p<0.001) uptake
tumor binding by SPECT imaging [6]: bound

Kd [8]: 2160 µM
B1: GIRLRG (SEQ ID NO:1) peptide (peptide)
peptide: GIRLRG
notes: Unconjugated synthetic hexapeptide, used as the analyte in SPR and as the ligand in the molecular model; also called lead peptide
